The text below walks through data of ChEMBL document CHEMBL2331416, “Investigation of antibacterial mode of action for traditional and amphiphilic aminoglycosides” (Bioorg Med Chem Lett, 2013).

SMILES strings stand for the structures. Converted amounts (≈) assume the structure as drawn. The source made the active and inactive calls.

Assay [1] can be described thus: Binding affinity to 2-AP labeled 16s rRNA (unknown origin) having pairing of C1405-G1496 by fluorescence assay.
The nature of assay [2]: Binding affinity to 2-AP labeled 16s rRNA (unknown origin) having pairing of G1405-C1496 by fluorescence assay.
Assay [3] has as its system Staphylococcus aureus. Nature of the assay: Antibacterial activity against Staphylococcus aureus ATCC 25923 assessed as growth inhibition. Type of assay: functional.
For assay [4], the system named is Escherichia coli. The experiment in a line: Antibacterial activity against Escherichia coli ATCC 25922 assessed as growth inhibition. It counts as functional.
Assay [5] has as its system Staphylococcus aureus. The experiment in a line: Antibacterial activity against Staphylococcus aureus ATCC 25923 assessed as membrane disruption at 4 X MIC after 2 hrs by SYTOX staining-based fluorescence microscopic analysis. Type of assay: functional, organism-based.
Assay [6] relates to Escherichia coli. The experiment in a line: Antibacterial activity against Escherichia coli ATCC 25922 assessed as membrane disruption at 4 X MIC after 2 hrs by SYTOX staining-based fluorescence microscopic analysis. It counts as functional, organism-based.

`C[C@H]1O[C@@H](O[C@@H]2[C@@H](O)[C@H](N)C[C@H](N)[C@H]2O[C@H]2O[C@H](CN)CC[C@H]2N)[C@H](O)[C@@H](O)[C@@H]1O`: the Kd (as a rule, a measure of binding affinity in units of concentration) was 1200 nM in assay [1] and 1330 nM in assay [2] (read-out: Kd). Besides, the values for the MIC with Staphylococcus aureus [3] and in the assay with Escherichia coli [4] were 6.5 µM (≈ 2.84 µg/mL) and 26 µM (≈ 11.3 µg/mL), respectively.
In the same order, the values of `NC[C@H]1O[C@H](O[C@H]2[C@H](O[C@@H]3O[C@H](CO)[C@@H](O)[C@H](O)[C@H]3O)[C@@H](O)[C@H](N)C[C@@H]2N)[C@H](N)[C@@H](O)[C@@H]1O` are 608 nM, 9670 nM, 44.4 µM (≈ 21.5 µg/mL) and 92.4 µM (≈ 44.8 µg/mL).
Consider `NC[C@H]1O[C@@H](O[C@@H]2[C@@H](O)[C@H](N)C[C@H](N)[C@H]2O[C@H]2O[C@H](CN)[C@@H](O)[C@H](O)[C@H]2N)[C@H](O)[C@@H](O)[C@@H]1N`, for which the values for the Kd in assay [1] and in assay [2] (read-out: Kd) were 261 nM and 3720 nM, respectively. Further, the figures for the MIC with Staphylococcus aureus [3] and with Escherichia coli [4] were 29.6 µM (≈ 14.3 µg/mL) and 41.8 µM (≈ 20.2 µg/mL), respectively.
In the same order, the values of `NC[C@H]1O[C@@H](O[C@@H]2[C@@H](O)[C@H](N)C[C@H](N)[C@H]2O[C@H]2O[C@H](CN)[C@@H](O)[C@H](O)[C@H]2N)[C@H](O)[C@@H](O)[C@@H]1O` are 845 nM, 26000 nM, 14.8 µM (≈ 7.16 µg/mL) and 35.1 µM (≈ 17 µg/mL).
`CCCCCCCCCCCCCCCC(=O)NC[C@H]1O[C@@H](O[C@@H]2[C@@H](O)[C@H](N)C[C@H](N)[C@H]2O[C@H]2O[C@H](CN)[C@@H](O)[C@H](O)[C@H]2N)[C@H](O)[C@@H]1O[C@@H]1O[C@H](CN)[C@H](O)[C@@H](O)[C@@H]1N`: the outcome with Staphylococcus aureus [5] and in the assay on Escherichia coli [6] was Active. Besides, the Kd in assay [1] came to 737 nM; in assay [2] (read-out: Kd), 1270 nM. For the same compound, the results for the MIC in the assay with Staphylococcus aureus [3] and in the assay with Escherichia coli [4] were 2.35 µM (≈ 2 µg/mL) and 4.69 µM (≈ 4 µg/mL), respectively.
With `NC[C@H]1O[C@H](O[C@H]2[C@H](O[C@@H]3O[C@H](CO)[C@@H](N)[C@H](O)[C@H]3O)[C@@H](O)[C@H](N)C[C@@H]2N)[C@H](N)[C@@H](O)[C@@H]1O`, the Kd came out at 2830 nM in assay [1] and 5680 nM in assay [2] (read-out: Kd). Further, the MIC (commonly the smallest concentration in the dilution series that meets the test's criterion for growth inhibition) amounted to 29.6 µM (≈ 14.3 µg/mL) in the assay on Staphylococcus aureus [3] and 44 µM (≈ 21.3 µg/mL) with Escherichia coli [4].
On to `NCC[C@H](O)C(=O)N[C@@H]1C[C@H](N)[C@@H](O[C@H]2O[C@H](CN)[C@@H](O)[C@H](O)[C@H]2N)[C@H](O[C@@H]2O[C@H](CO)[C@@H](O[C@@H]3O[C@H](CN)[C@H](O)[C@@H](O)[C@@H]3N)[C@H]2O)[C@H]1O` [NEOKACIN], for which the Kd in assay [1] is 1640 nM; in assay [2], “Not Active”. The MIC was determined as 2.15 µM (≈ 1.54 µg/mL) with Staphylococcus aureus [3] and 8.59 µM (≈ 6.15 µg/mL) with Escherichia coli [4].
In the case of `C[C@H]1O[C@@H](O[C@@H]2[C@@H](O)[C@H](N)C[C@H](N)[C@H]2O[C@H]2O[C@H](CN)[C@@H](O)[C@H](O)[C@H]2N)[C@H](O)[C@@H](O)[C@@H]1N`, the Kd in assay [1] is 556 nM; in assay [2] it was “Not Active”. The values for the minimal inhibitory concentration (MIC) with Staphylococcus aureus [3] and in the assay on Escherichia coli [4] were 11 µM (≈ 5.14 µg/mL) and 19.8 µM (≈ 9.26 µg/mL), respectively.
For the compound `NC[C@@H]1O[C@H](O[C@H]2[C@@H](O)[C@H](O[C@@H]3[C@@H](O)[C@H](N)C[C@H](N)[C@H]3O[C@H]3O[C@H](CN)[C@@H](O)[C@H](O)[C@H]3N)O[C@@H]2CO)[C@H](N)[C@@H](O)[C@@H]1O` [FRAMYCETIN], the outcome in the assay on Staphylococcus aureus [5] was inactive. Also, the Kd in assay [1] was found to be 1270 nM; in assay [2] (read-out: Kd), 1150 nM. The results for the MIC in the assay on Staphylococcus aureus [3] and in the assay with Escherichia coli [4] were 1.1 µM (≈ 0.676 µg/mL) and 4.4 µM (≈ 2.7 µg/mL), respectively.
`C[C@H]1O[C@@H](O[C@@H]2[C@@H](O)[C@H](NC(=O)[C@@H](O)CCN)C[C@H](N)[C@H]2O[C@H]2O[C@H](CN)CC[C@H]2N)[C@H](O)[C@@H](O)[C@@H]1N` [PYRANKACIN]: the Kd amounted to 1360 nM in assay [1] and 650 nM in assay [2] (read-out: Kd). Further, the values for the minimum inhibitory concentration (MIC) in the assay with Staphylococcus aureus [3] and in the assay with Escherichia coli [4] were 2.8 µM (≈ 1.5 µg/mL) and 5.59 µM (≈ 3 µg/mL), respectively.
In the case of `NC[C@H]1O[C@H](O[C@H]2[C@H](O[C@@H]3O[C@H](CO)[C@@H](O)[C@H](N)[C@H]3O)[C@@H](O)[C@H](N)C[C@@H]2N)[C@H](N)[C@@H](O)[C@@H]1O`, the results for the Kd in assay [1] and in assay [2] were 1150 nM and “Not Active”, respectively. Besides, the minimum inhibitory concentration (MIC) with Staphylococcus aureus [3] turned out to be 59.2 µM (≈ 28.6 µg/mL); with Escherichia coli [4] it was 57.2 µM (≈ 27.7 µg/mL).
